Values quoted from earlier work, collected in patent US20120178757A1, “Method For The Prevention Of Cancer Metastasis” (NOTTINGHAM UNIVERSITY HOSPITALS NHS TRUST, priority 2010, published 2012).
“Also recorded” adds a separate entry of the source.

Tests used:
breast cancer cells = details: in vitro breast cancer cells
prostate cancer = details: coincidental treatment for hypertension or benign prostate hyperplasia
[1] = test system: carcinoma cell lines of colon, prostate, ovary and breast; details: adrenoceptor-mediated, norepinephrine-induced migration of cancer cells
[2] = test system: human pancreatic cell lines

COc1cc2nc(N3CCN(C(=O)C4COc5ccccc5O4)CC3)nc(N)c2cc1OC (stereo not drawn) [doxazosin, Doxazosin]
apoptosis (breast cancer cells): induce apoptosis | proliferation (breast cancer cells): inhibit proliferation | incidence of prostate cancer (prostate cancer): significantly lowered the incidence of prostate cancer

CC(C)NCC(O)COc1cccc2ccccc12 (stereo not drawn) [propranolol, Propranolol]
cell migration [1]: can be inhibited; also recorded: is inhibited | proliferation [2]: can reduce proliferation

COc1cc2nc(N3CCN(C(=O)C4CCCO4)CC3)nc(N)c2cc1OC (stereo not drawn) [terazosin, Terazosin]
incidence of prostate cancer (prostate cancer): significantly lowered the incidence of prostate cancer
